Consider six compounds from ChEMBL document CHEMBL4376882, “Photodynamic Therapy for ras-Driven Cancers: Targeting G-Quadruplex RNA Structures with Bifunctional Alkyl-Modified Porphyrins” (J Med Chem, 2020).

Structures are written as SMILES. pEC50, pKd: −log10 of the molar value. Active and inactive are the calls of the source. The rule behind the calls is not given here.

Data set [1] has as its system PANC-1. Put plainly: Antitumor activity against human PANC1 cells xenografted in SCID mouse assessed as reduction in tumor growth at 30 mg/kg administered intratumorally measured after 14 days by micrometer caliper method. The format is functional, organism-based. A general note: A xenograft is tissue or cells of one species grown in another, often human tumour cells in immunodeficient mice.

Data set [2] can be described thus: Drug uptake in human PANC1 cells at 5 uM after 16 hrs by FACS analysis. The format is ADME, cell-based. Conditions: panc-1, 16 h.
Data set [3] in a line: Drug uptake in human PANC1 cells at 5 uM after 2 hrs by FACS analysis. It counts as ADME, cell-based. Conditions: panc-1, 2 h. A general note: Flow cytometry measures light scatter and fluorescence of single cells or particles in a stream.
Data set [4] relates to PANC-1. In words: Photodynamic antitumor activity against human PANC1 cells xenografted in SCID mouse assessed as reduction in tumor growth at 30 mg/kg administered intratumorally after 2 hrs photoirradiated by diode laser at 193 J/cm2 measured after 14 days by micrometer caliper method. The format is functional, organism-based.
In the next data set the test system is MIA PaCa-2. In words: Cytotoxicity against human MIAPaCa2 cells harboring G12C point mutation assessed as reduction in metabolic activity after 48 hrs in dark followed by photoirradiation in presence of NADH by resazurin assay. It counts as functional, cell-based. For orientation: Resazurin is reduced to fluorescent resorufin, in cell work by metabolically active cells.

Data set [5] relates to PANC-1. In words: Cytotoxicity against human PANC1 cells assessed as reduction in metabolic activity after 48 hrs in dark followed by photoirradiation in presence of NADH by resazurin assay. The format is functional, cell-based. The settings on record: PANC-1, light or radiation study.
The subject of data set [6] is PANC-1. Put plainly: Cytotoxicity against human PANC1 cells assessed as reduction in metabolic activity at 20 nM after 24 to 72 hrs in dark followed by photoirradiation in presence of NADH and NAC by resazurin assay. The format is functional, cell-based.
Data set [7] addresses Quadruplex DNA. In words: Binding affinity to human KRAS utr-z RNA g-quadruplex at 40 degree C by SPR analysis. The format is nucleic-acid assay.
Data set [8] can be described thus: Binding affinity to NRAS RNA g-quadruplex (unknown origin) at 40 degree C by SPR analysis. The format is nucleic-acid assay.
The test system of the next data set is HEK293. In words: Cytotoxicity against human HEK293 cells assessed as reduction in metabolic activity after 24 to 72 hrs in dark followed by photoirradiation in presence of NADH by resazurin assay. It counts as ADME, cell-based.
In data set [9] the test system is PANC-1. In words: Cytotoxicity against human PANC1 cells assessed as reduction in metabolic activity at 20 nM after 24 to 72 hrs in dark followed by photoirradiation in presence of NADH by resazurin assay. The format is functional, cell-based.
Data set [10] concerns RNA. Put plainly: Binding affinity to total RNA in human PANC1 cells assessed as increase in amount of NRAS mRNA in recovered RNA from biotin-streptavidin pulled down at 0.2 to 0.6 uM at pH 7.4 and 4 degree C using biotinylated compound by qRT-PCR analysis relative to control. It counts as cell-based.
For data set [11], the system named is RNA. In words: Binding affinity to total RNA in human PANC1 cells assessed as increase in amount of beta2-microglobulin mRNA in recovered RNA from biotin-streptavidin pulled down at 0.2 to 0.6 uM at pH 7.4 and 4 degree C using biotinylated compound by qRT-PCR analysis. The format is cell-based.
The subject of data set [12] is RNA. Put plainly: Binding affinity to total RNA in human PANC1 cells assessed as increase in amount of HPRT mRNA in recovered RNA from biotin-streptavidin pulled down at 0.2 to 0.6 uM at pH 7.4 and 4 degree C using biotinylated compound by qRT-PCR analysis. The format is cell-based.
Data set [13] has as its system DNA. In words: Binding affinity to DNA (unknown origin) strands containing 95 and 89 nucleotides in ratio of 1:2 assessed as presence of ssDNA when G4 motif of 95 nucleotides interact with biotinylated compound at > 0.4 uM at pH 7.4 after 1 hr by biotin-streptavidin pull-down assay. The format is nucleic-acid assay.
The test system of data set [14] is RNA. Put plainly: Binding affinity to total RNA in human PANC1 cells assessed as increase in amount of KRAS mRNA in recovered RNA from biotin-streptavidin pulled down at 0.2 to 0.6 uM at pH 7.4 and 4 degree C using biotinylated compound by qRT-PCR analysis relative to control. It counts as cell-based.
The subject of data set [15] is DNA. In words: Binding affinity to DNA (unknown origin) strands containing 95 and 89 nucleotides in ratio of 1:2 assessed as interaction between G4 motif of 95 nucleotides and biotinylated compound at 0.2 to 0.4 uM at pH 7.4 after 1 hr by biotin-streptavidin pull-down assay. The format is nucleic-acid assay.
Data set [16] addresses Quadruplex DNA. Put plainly: Binding affinity to NRAS RNA g-quadruplex (unknown origin) by fluorescence spectroscopy. It counts as nucleic-acid assay.
Data set [17] is described as follows: Drug uptake in human PANC1 cells in presence of dynamin-inhibitor dynasore. The format is ADME, cell-based. The settings on record: panc-1.
Data set [18] addresses Quadruplex DNA. In words: Binding affinity to human KRAS utr-c RNA g-quadruplex by fluorescence spectroscopy. The format is nucleic-acid assay.
The target in data set [19] is Quadruplex DNA. Put plainly: Binding affinity to human KRAS utr-z RNA g-quadruplex by fluorescence spectroscopy. The format is nucleic-acid assay.
The target in data set [20] is Quadruplex DNA. Put plainly: Binding affinity to human KRAS utr-1 RNA g-quadruplex by fluorescence spectroscopy. It counts as nucleic-acid assay.
Data set [21] concerns Quadruplex DNA. Put plainly: Binding affinity to human KRAS utr-z RNA g-quadruplex assessed as compound-RNA complex stoichiometry ratio of 1:1 by Job's plot analysis. The format is nucleic-acid assay.
The subject of data set [22] is Quadruplex DNA. In words: Binding affinity to human KRAS utr-z RNA g-quadruplex assessed as compound-RNA complex stoichiometry ratio of 4:1 by Job's plot analysis. It counts as nucleic-acid assay.
A short description of data set [23]: Binding affinity to 20-mer stem-loop RNA (unknown origin) assessed as compound-RNA complex stoichiometry ratio of 2:1 by Job's plot analysis.

`C[n+]1ccccc1-c1c2nc(c(-c3cccc[n+]3C)c3ccc([nH]3)c(-c3cccc[n+]3C)c3ccc([nH]3)c(-c3cccc[n+]3C)c3nc1C=C3)C=C2.[Cl-].[Cl-].[Cl-].[Cl-]`: the outcome in the data set with PANC-1 [1] and with PANC-1 [4] was inactive. Also, the Drug uptake result in data set [2] is listed as “Active”; in data set [3], “Not Active”.

The term pEC50 denotes the EC50 on a negative log10 scale, so that one unit is a factor of ten. Broadly, the pKd is the Kd on a negative log10 scale, so that one unit is a factor of ten. Regarding `CCCCCCCCCCCCCCCC[n+]1ccc(-c2c3nc(c(-c4cc[n+](C)cc4)c4ccc([nH]4)c(-c4cc[n+](C)cc4)c4nc(c(-c5cc[n+](C)cc5)c5ccc2[nH]5)C=C4)C=C3)cc1.[I-].[I-].[I-].[I-]`, the outcome with MIA PaCa-2 and with PANC-1 [9] was Active. Further, in the data set on PANC-1 [5], the negative logarithm of the EC50 (pEC50) is 7.72. Moreover, the outcome in the data set with PANC-1 [6] was inactive. Besides, the values for the negative logarithm of the Kd (pKd) (at Quadruplex DNA [7]; in data set [8]) were 6.69 to 7.09 and 7.01 to 7.25, respectively. Also, the Activity result with HEK293 was “Non-Toxic”.

`C[n+]1ccc(-c2c3nc(c(-c4cc[n+](C)cc4)c4ccc([nH]4)c(-c4cc[n+](CCCCCCCCCCCCNC(=O)CCCC[C@@H]5SC[C@@H]6NC(=O)N[C@@H]65)cc4)c4nc(c(-c5cc[n+](C)cc5)c5ccc2[nH]5)C=C4)C=C3)cc1`: the outcome in the data set on RNA [10], in the data set on DNA [13] and in the data set on DNA [15] was Active. Besides, the outcome with RNA [11] and in the data set on RNA [12] was inactive. Besides, the fold change (FC) with RNA [14] was determined as 25.

Regarding `C[n+]1ccc(-c2c3nc(c(-c4cc[n+](C)cc4)c4ccc([nH]4)c(-c4cc[n+](C)cc4)c4nc(c(-c5cc[n+](C)cc5)c5ccc2[nH]5)C=C4)C=C3)cc1.[Cl-].[Cl-].[Cl-].[Cl-]` [TMPYP4 CHLORIDE], the negative logarithm of the Kd (pKd) on Quadruplex DNA [16] is 6.52; on Quadruplex DNA [18] it was 5.99; on Quadruplex DNA [19], 6.17; at Quadruplex DNA [20], 6.34. Besides, the Drug uptake result was “Active” in data set [17], “Active” in [2] and “Not Active” in data set [3].

Take `CCCCCCCCCCCC[n+]1ccc(-c2c3nc(c(-c4cc[n+](C)cc4)c4ccc([nH]4)c(-c4cc[n+](C)cc4)c4nc(c(-c5cc[n+](C)cc5)c5ccc2[nH]5)C=C4)C=C3)cc1.[I-].[I-].[I-].[I-]`: the outcome in the data set on MIA PaCa-2 and in the data set with PANC-1 [9] was Active. Moreover, the pEC50 in the data set with PANC-1 [5] is 7.88. In the data set with PANC-1 [6], the outcome was inactive. Further, the results for the negative-log Kd (pKd) (on Quadruplex DNA [7]; in data set [8]) were 6.69 to 7.09 and 7.01 to 7.25, respectively. For the same compound, the Activity result in the data set on HEK293 is “Non-Toxic”.

As for `C[n+]1ccc(-c2c3nc(c(-c4cc[n+](C)cc4)c4ccc([nH]4)c(-c4cc[n+](C)cc4)c4ccc([nH]4)c(-c4cc[n+](C)cc4)c4nc2C=C4)C=C3)cc1`, the outcome (in the data set on Quadruplex DNA [21]; with Quadruplex DNA [22]; in data set [23]) was Active.
